Experimental data as given in publication PMC11912475 (Journal of Medicinal Chemistry, 2025).
Like-named read-outs stand apart in the source and are kept apart here.

Columns and labels:
[1] = biological target: GluN1-GluN2A NMDAR subtype (Homo sapiens, UniProt Q05586+Q12879); assay: FLIPR/Ca2+ assay, NMDAR GluN1-GluN2A subtype in CHO cells; format: cell-based
Procedure: (§1) These compounds were assessed for their effects on specific heterodimeric NMDAR subtypes stably overexpressed in Chinese Hamster Ovary (CHO) cells. The subtypes tested included GluN1-GluN2A, GluN1-GluN2B, GluN1-GluN2C, and GluN1-GluN2D. CHO cells expressing each of the four NMDAR subtypes were incubated with 10 μM L-glutamate, a concentration known to elicit maximal Ca^2+ influx, serving as the stimulus. Intracellular Ca^2+ levels were subsequently measured to determine the extent of NMDAR activation.
(§2) Assay buffer composition was 145 mM NaCl, 5 mM KCl, 2 mM CaCl2, 1 g/Liter D-(+)-glucose, and 20 mM HEPES (pH 7.3 adjusted with NaOH). Cells were plated at a density of 15.000/well in 384 black/clear bottom plates. […] Cells were kept at 30 °C in 5% CO2 incubator for 24 h. Cells were preloaded for 1 h with 2 μM Fluo-4 Ca^2+-sensitive probe, simultaneously with 2.5 mM probenecid, an inhibitor of nonspecific anion transport, and 500 μM ketamine to avoid cytotoxicity. […] Intracellular Ca^2+ level was monitored by FLIPR (excitation wavelength at 470–495 nm, emission wavelength at 515–575 nm) for 10 s before and 5 min after the addition of test items. All test items, including L-glutamate and glycine, were added simultaneously. […] FLIPR data were normalized as 100%, in the presence of 10 μM L-glutamate and 10 μM glycine, while as 0%, in the presence of assay buffer. […] Then, data were normalized by Excel 2013 (Microsoft Office) software, using wells added with 10 μM L-glutamate plus 10 μM glycine (column 23) as high control, and wells added with assay buffer only (column 24) as low control. To assess plate quality, Z′ calculations were performed in Excel. Z′ was calculated according to following equation: Z′ = 1–3(σh + σl)/|μh – μL| where μ and σ are the means and the standard deviations of the means of high (h) and low (l) controls, respectively. Compound concentration–response curves were plotted by Prism 8 GraphPad software, in the different experimental conditions (see Supporting Information). Data were analyzed using least-squares regression fitting, to fit data to a standard four parameters logistic equation using GraphPad Prism10. This regression fitting allowed the calculation of pIC50 and the corresponding SEM.

[2] = biological target: T1, GluN1-GluN2B NMDAR subtype (Homo sapiens, UniProt Q05586+Q13224); assay: FLIPR/Ca2+ assay, NMDAR GluN1-GluN2B subtype in CHO cells; format: cell-based
T1 construct: host or cells: NR1-2B-CHO cells, constitutive expression
Procedure: as §1, §2

[3] = biological target: GluN1-GluN2C NMDAR subtype (Homo sapiens, UniProt Q05586+Q14957); assay: FLIPR/Ca2+ assay, NMDAR GluN1-GluN2C subtype in CHO cells; format: cell-based
Procedure: as §1, §2

[4] = biological target: GluN1-GluN2D NMDAR subtype (Homo sapiens, UniProt O15399+Q05586); assay: FLIPR/Ca2+ assay, NMDAR GluN1-GluN2D subtype in CHO cells; format: cell-based
Procedure: as §1, §2

[5] = tested on: Glutamate, NMDA, Phencyclidine binding site; assay: Radioligand displacement binding assay, [3H]TCP, NMDA; set-up: species or system Wistar rat
[6] = biological target: T2, Histamine H1 (Homo sapiens, UniProt P35367); assay: Radioligand displacement binding assay, [3H]pyrilamine, H1
T2 construct: host or cells: CHO-K1

[7] = biological target: T3, Muscarinic M5 (Homo sapiens, UniProt P08912); assay: Radioligand displacement binding assay, [3H]N-methylscopolamine, M5
T3 construct: host or cells: CHO-K1
T3 sequence (P08912 1-532): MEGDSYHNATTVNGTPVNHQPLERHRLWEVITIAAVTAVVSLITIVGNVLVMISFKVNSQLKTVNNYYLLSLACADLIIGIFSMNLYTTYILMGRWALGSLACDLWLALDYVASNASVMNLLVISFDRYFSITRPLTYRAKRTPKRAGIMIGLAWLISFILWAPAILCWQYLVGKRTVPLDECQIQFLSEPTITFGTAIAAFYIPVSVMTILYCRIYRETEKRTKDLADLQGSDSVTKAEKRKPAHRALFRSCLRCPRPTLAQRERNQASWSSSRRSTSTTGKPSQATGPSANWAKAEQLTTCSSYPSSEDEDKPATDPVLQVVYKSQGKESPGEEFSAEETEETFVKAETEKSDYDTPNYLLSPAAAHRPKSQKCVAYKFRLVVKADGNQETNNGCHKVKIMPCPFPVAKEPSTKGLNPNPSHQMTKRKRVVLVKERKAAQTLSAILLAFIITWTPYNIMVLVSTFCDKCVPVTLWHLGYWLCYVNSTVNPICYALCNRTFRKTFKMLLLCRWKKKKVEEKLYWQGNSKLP

[8] = biological target: T4, μ opioid receptor (MOP) (Homo sapiens, UniProt P35372); assay: biochemical; format: binding; conditions: for inhibition at 0.3 µM / inhibition at 3 µM: read-out: % inhibition of binding, MOP
T4 construct: host or cells: CHO-K1

[9] = biological target: T5, Serotonin 5-HT1A (Homo sapiens, UniProt P08908); assay: Radioligand displacement binding assay, [3H]8-OH-DPAT, 5-HT1A
T5 construct: host or cells: CHO-K1
T5 sequence (P08908 1-422): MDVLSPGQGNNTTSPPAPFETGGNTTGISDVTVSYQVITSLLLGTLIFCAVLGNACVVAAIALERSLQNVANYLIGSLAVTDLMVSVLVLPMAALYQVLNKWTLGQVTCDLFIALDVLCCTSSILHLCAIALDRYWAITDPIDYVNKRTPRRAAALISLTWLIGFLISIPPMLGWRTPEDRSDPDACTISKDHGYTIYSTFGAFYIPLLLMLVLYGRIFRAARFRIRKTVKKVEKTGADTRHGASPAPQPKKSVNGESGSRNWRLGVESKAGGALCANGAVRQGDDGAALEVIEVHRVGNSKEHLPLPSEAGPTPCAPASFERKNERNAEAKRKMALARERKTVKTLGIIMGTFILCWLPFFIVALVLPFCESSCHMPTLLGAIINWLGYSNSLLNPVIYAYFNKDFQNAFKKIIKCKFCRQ

[10] = biological target: T6, Serotonin 5-HT2A (Homo sapiens, UniProt P28223); assay: Radioligand displacement binding assay, [3H]ketanserin, 5-HT2A
T6 construct: host or cells: CHO-K1

[11] = biological target: T7, Serotonin 5-HT2C (Homo sapiens, UniProt P28335); assay: Radioligand displacement binding assay, [3H]mesulergine, 5-HT2C
T7 construct: host or cells: CHO-K1
T7 sequence (P28335 33-458): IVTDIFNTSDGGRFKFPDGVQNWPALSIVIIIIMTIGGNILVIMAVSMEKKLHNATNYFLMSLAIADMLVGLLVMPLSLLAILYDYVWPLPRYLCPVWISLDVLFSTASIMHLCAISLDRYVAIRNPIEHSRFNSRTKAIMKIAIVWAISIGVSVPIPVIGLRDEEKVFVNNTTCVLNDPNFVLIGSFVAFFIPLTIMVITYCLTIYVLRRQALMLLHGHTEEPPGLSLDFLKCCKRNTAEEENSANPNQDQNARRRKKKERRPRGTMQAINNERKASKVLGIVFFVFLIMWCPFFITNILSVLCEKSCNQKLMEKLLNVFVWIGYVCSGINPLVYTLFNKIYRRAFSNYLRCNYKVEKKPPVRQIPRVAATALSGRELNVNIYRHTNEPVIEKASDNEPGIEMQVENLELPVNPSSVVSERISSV

[12] = biological target: T8, Serotonin 5-HT5A (Homo sapiens, UniProt P47898); assay: Radioligand displacement binding assay, [3H]LSD, 5-HT5A
T8 construct: host or cells: CHO-K1

[13] = biological target: T9, Serotonin 5-HT7 (Homo sapiens, UniProt P34969); assay: Radioligand displacement binding assay, [3H]LSD, 5-HT7
T9 construct: host or cells: CHO-K1

[14] = biological target: T10, Sigma σ1 (Homo sapiens, UniProt Q99720); assay: Radioligand displacement binding assay, [3H]pentazocine, sigma σ1
T10 construct: Sigma σ1; Source: Human Jurkat cells; host or cells: Jurkat

[15] = biological target: T11, Norepinephrine transporter NET (Homo sapiens, UniProt P23975); assay: Radioligand displacement binding assay, [125I]RTI-55, NET
T11 construct: host or cells: MDCK

[16] = biological target: T12, Serotonin transporter SERT (Homo sapiens, UniProt P31645); assay: Radioligand displacement binding assay, [3H]paroxetine, SERT
T12 construct: host or cells: HEK-293

[17] = CHO cells, 10 μM L-glutamate and 10 μM glycine, n.d. = 50% of inhibition could not be reached at the highest concentration used
[18] = CHO cells, 10 μM L-glutamate and 10 μM glycine, n.d. = 50% of inhibition could not be reached at the highest concentration used, read-out: pIC50 (mean ± SEM) GluN1-GluN2A (converted)
[19] = CHO cells, 10 μM L-glutamate and 10 μM glycine, n.d. = 50% of inhibition could not be reached at the highest concentration used, read-out: pIC50 (mean ± SEM) GluN1-GluN2B (converted)
[20] = CHO cells, 10 μM L-glutamate and 10 μM glycine, n.d. = 50% of inhibition could not be reached at the highest concentration used, read-out: pIC50 (mean ± SEM) GluN1-GluN2C (converted)
[21] = CHO cells, 10 μM L-glutamate and 10 μM glycine, n.d. = 50% of inhibition could not be reached at the highest concentration used, read-out: pIC50 (mean ± SEM) GluN1-GluN2D (converted)

T1 sequence (Q13224 27-1484, other chains not shown): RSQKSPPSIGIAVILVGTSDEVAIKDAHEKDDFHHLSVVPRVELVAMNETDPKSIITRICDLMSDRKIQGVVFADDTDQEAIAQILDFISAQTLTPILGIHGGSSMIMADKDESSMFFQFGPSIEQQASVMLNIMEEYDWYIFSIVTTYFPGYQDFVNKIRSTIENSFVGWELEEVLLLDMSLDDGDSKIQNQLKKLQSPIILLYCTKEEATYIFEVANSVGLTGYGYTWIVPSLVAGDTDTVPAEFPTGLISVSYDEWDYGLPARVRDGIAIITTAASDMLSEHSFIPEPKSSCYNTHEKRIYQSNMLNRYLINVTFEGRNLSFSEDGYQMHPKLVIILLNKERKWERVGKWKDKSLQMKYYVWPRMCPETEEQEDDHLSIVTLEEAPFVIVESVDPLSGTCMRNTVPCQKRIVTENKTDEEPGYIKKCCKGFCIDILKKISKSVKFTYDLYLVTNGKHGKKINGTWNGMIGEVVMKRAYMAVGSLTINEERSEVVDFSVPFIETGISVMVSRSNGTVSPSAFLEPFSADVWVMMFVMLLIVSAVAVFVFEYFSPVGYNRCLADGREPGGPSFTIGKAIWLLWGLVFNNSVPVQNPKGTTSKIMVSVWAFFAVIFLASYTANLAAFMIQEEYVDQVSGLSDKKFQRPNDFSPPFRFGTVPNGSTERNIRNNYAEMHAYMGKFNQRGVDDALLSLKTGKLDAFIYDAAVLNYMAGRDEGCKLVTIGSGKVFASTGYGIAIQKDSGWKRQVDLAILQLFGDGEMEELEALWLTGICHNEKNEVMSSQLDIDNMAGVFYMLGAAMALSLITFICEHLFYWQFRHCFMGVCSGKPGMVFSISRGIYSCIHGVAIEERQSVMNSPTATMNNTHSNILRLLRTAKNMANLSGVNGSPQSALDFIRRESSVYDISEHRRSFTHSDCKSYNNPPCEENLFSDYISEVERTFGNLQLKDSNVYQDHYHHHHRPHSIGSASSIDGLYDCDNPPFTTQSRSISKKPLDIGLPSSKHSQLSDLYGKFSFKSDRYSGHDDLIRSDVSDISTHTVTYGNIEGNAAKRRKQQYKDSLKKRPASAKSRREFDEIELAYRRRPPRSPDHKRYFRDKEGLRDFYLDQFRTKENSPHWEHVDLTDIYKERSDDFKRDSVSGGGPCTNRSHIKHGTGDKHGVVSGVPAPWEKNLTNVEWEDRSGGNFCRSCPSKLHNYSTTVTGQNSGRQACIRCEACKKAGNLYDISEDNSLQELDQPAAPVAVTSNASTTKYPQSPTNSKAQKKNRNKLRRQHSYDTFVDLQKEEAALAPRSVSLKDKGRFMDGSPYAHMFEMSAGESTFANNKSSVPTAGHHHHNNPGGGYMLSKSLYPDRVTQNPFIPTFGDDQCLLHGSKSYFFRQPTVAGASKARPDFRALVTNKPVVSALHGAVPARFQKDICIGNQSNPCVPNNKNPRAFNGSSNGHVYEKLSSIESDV
T6 sequence (P28223 whole entry): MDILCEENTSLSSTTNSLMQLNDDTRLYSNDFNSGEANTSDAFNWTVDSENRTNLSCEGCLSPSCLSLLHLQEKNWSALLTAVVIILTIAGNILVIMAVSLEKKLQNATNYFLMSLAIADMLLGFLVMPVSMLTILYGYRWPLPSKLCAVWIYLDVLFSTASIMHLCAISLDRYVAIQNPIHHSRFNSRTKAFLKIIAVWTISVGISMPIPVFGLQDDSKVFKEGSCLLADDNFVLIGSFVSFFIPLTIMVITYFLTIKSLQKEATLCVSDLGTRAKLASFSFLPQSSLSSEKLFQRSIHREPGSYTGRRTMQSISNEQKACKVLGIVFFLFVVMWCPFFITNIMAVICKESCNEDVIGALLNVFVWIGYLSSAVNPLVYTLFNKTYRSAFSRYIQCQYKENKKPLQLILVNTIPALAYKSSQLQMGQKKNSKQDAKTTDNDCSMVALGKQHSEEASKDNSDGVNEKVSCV
T12 sequence (P31645 whole entry): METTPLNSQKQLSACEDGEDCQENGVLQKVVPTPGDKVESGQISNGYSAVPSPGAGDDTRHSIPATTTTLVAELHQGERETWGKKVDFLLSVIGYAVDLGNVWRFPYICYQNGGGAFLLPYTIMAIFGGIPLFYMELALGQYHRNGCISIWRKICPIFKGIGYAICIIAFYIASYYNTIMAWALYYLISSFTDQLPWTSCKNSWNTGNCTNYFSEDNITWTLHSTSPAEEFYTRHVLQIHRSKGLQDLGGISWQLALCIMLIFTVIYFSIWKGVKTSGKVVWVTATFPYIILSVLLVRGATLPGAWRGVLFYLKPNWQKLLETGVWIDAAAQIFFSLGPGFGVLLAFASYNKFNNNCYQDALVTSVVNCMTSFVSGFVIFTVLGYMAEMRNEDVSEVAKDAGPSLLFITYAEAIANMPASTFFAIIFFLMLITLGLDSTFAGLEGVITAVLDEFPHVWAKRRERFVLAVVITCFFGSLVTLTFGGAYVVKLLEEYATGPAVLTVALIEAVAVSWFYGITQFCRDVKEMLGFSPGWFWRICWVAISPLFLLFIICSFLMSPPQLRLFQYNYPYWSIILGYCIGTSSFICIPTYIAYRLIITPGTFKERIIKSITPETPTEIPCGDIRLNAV
T10 sequence (Q99720 whole entry): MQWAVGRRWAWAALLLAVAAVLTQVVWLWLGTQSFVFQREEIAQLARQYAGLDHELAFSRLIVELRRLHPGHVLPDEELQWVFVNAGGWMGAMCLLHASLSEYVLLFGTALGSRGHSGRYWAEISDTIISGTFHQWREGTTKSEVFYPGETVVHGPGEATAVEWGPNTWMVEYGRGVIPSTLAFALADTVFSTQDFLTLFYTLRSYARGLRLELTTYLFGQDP
T2 sequence (P35367 whole entry): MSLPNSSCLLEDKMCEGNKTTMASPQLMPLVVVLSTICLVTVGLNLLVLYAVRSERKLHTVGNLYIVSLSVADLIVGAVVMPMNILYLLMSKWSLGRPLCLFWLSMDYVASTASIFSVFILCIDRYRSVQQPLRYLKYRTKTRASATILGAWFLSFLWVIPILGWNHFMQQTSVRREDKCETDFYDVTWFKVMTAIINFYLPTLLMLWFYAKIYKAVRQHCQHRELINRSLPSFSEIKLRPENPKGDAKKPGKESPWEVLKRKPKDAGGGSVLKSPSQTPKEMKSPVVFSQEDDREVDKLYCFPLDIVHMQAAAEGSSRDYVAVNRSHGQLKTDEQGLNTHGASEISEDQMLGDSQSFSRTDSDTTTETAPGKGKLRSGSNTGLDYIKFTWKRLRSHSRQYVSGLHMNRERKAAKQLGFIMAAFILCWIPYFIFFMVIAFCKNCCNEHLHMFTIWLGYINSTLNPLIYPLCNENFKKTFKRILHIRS
T8 sequence (P47898 whole entry): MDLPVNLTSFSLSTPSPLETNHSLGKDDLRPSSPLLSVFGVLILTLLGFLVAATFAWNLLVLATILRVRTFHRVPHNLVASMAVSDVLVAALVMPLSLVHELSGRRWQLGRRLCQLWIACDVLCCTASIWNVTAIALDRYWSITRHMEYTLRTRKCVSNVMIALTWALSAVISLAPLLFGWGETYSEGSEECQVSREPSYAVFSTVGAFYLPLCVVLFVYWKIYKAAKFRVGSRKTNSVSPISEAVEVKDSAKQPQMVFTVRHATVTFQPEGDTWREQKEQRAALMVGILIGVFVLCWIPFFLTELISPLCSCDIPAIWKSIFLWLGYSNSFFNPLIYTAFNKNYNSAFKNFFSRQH
Sequence of GluN1-GluN2D NMDAR subtype (O15399 28-1336, other chains not shown): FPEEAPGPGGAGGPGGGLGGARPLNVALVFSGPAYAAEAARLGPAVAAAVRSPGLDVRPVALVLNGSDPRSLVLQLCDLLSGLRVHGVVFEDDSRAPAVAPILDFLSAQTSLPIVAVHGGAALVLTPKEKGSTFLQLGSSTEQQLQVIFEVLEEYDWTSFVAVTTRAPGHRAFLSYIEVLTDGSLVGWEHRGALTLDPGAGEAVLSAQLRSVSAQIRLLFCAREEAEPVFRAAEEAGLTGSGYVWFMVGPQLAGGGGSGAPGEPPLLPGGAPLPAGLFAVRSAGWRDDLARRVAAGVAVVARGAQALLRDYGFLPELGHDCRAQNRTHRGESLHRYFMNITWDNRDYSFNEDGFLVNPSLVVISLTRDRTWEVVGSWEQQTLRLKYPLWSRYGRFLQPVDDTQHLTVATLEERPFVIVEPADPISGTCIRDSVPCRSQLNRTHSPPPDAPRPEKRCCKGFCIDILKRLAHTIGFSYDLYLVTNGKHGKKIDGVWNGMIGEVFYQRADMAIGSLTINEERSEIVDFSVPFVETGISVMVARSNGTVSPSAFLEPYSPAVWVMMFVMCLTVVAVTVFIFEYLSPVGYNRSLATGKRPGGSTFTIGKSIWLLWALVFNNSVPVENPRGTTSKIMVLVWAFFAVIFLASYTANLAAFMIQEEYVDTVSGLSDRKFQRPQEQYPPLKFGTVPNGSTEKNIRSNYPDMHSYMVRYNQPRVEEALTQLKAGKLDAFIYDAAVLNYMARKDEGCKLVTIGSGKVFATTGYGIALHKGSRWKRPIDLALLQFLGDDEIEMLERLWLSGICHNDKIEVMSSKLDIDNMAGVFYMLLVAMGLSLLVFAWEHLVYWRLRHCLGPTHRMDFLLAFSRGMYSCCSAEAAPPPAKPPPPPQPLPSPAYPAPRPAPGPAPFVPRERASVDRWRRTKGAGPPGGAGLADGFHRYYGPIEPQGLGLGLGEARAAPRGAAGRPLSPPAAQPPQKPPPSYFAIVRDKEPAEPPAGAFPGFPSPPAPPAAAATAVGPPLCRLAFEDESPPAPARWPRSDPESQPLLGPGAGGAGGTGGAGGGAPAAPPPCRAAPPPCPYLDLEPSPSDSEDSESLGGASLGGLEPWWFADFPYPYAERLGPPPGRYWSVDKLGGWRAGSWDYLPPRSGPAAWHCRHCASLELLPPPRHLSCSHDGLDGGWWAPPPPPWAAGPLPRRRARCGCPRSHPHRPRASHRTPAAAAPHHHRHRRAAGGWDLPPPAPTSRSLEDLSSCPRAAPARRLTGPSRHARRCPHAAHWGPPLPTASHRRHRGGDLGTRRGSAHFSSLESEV

CC[C@@H](O)C(C[C@@H](C)N)(c1ccccc1)c1ccccc1 [(3R,6R)-DNML, (3R,6R)-6-amino-4,4-diphenylheptan-3-ol]
pIC50 (mean ± SEM) GluN1-GluN2A [1, 17]: 4.8 ± 0.060 | pIC50 (mean ± SEM) GluN1-GluN2B [2, 17]: 4.6 ± 0.054 | pIC50 (mean ± SEM) GluN1-GluN2C [3, 17]: 4.7 ± 0.050 | pIC50 (mean ± SEM) GluN1-GluN2D [4, 17]: 4.7 ± 0.058 | % inhibition of binding, NMDA ([5]; 1 μM): 12% | % inhibition of binding, NMDA ([5]; 10 μM): 54% | inhibition at 10 µM [6]: 3% | inhibition at 30 µM [6]: 9% | inhibition at 1 µM [7]: -1% | inhibition at 10 µM [7]: 33% | inhibition at 0.3 µM [8]: -7% | inhibition at 3 µM [8]: 9% | inhibition at 0.3 µM [9]: 0% | inhibition at 3 µM [9]: 4% | inhibition at 0.3 µM [10]: 6% | inhibition at 3 µM [10]: 8% | inhibition at 0.3 µM [11]: 7% | inhibition at 3 µM [11]: 16% | inhibition at 1 µM [12]: 4% | inhibition at 10 µM [12]: -4% | inhibition at 1 µM [13]: 12% | inhibition at 10 µM [13]: 8% | inhibition at 0.3 µM [14]: 14% | inhibition at 3 µM [14]: 47% | inhibition at 1 µM [15]: 4% | inhibition at 10 µM [15]: 6% | inhibition at 1 µM [16]: -1% | inhibition at 10 µM ([16]; 10 μM): 20%

CC[C@@H](O)C(C[C@@H](C)NC)(c1ccccc1)c1ccccc1 [(3R,6R)-NML, (3R,6R)-6-(methylamino)-4,4-diphenylheptan-3-ol]
pIC50 (mean ± SEM) GluN1-GluN2A [1, 17]: 5.0 ± 0.081 | pIC50 (mean ± SEM) GluN1-GluN2B [2, 17]: 4.8 ± 0.055 | pIC50 (mean ± SEM) GluN1-GluN2C [3, 17]: 5.0 ± 0.048 | pIC50 (mean ± SEM) GluN1-GluN2D [4, 17]: 5.0 ± 0.052 | % inhibition of binding, NMDA ([5]; 1 μM): 17% | % inhibition of binding, NMDA ([5]; 10 μM): 57% | pKi (mean ± SEM) [3H]TCP, NMDA ([5]; Wistar rat cerebral cortex, 4.0 nM [3H]TCP): 5.56 ± 0.07 | inhibition at 10 µM [6]: 15% | inhibition at 30 µM [6]: 20% | inhibition at 1 µM [7]: 15% | inhibition at 10 µM [7]: 43% | pKi (mean ± SEM) [3H]diprenorphine, MOP [8]: 5.64 ± 0.09 | inhibition at 0.3 µM [8]: 4% | inhibition at 3 µM [8]: 11% | inhibition at 0.3 µM [9]: -9% | inhibition at 3 µM [9]: -10% | inhibition at 0.3 µM [10]: 0% | inhibition at 3 µM [10]: -3% | inhibition at 0.3 µM [11]: 18% | inhibition at 3 µM [11]: 16% | inhibition at 1 µM [12]: 13% | inhibition at 10 µM [12]: 63% | inhibition at 1 µM [13]: 4% | inhibition at 10 µM [13]: 5% | inhibition at 0.3 µM [14]: 4% | inhibition at 3 µM [14]: 33% | inhibition at 1 µM [15]: -2% | inhibition at 10 µM [15]: 14% | inhibition at 1 µM [16]: 18% | % inhibition of binding, SERT ([16]; 10 μM): displaced | inhibition at 10 µM ([16]; 10 μM): 69%

C[C@H]1CC(c2ccccc2)(c2ccccc2)C(=O)N1C [(S)-DDPO, 1,5-Dimethyl-3,3-diphenylpyrrolidin-2-one]
IC50 [1, 18]: > 100 µM | IC50 [2, 19]: > 100 µM | IC50 [3, 20]: > 100 µM | IC50 [4, 21]: > 100 µM

C[C@@H](CC(C(=O)O)(c1ccccc1)c1ccccc1)N(C)C [(S)-DDVA, 4-(Dimethylamino)-2,2-diphenylpentanoic acid]
IC50 [1, 18]: > 100 µM | IC50 [2, 19]: > 100 µM | IC50 [3, 20]: > 100 µM | IC50 [4, 21]: > 100 µM

CCC1=[N+](C)[C@@H](C)CC1(c1ccccc1)c1ccccc1 [(S)-EDDP, 2-Ethyl-1,5-dimethyl-3,3-diphenyl-3,4-dihydro-5H-pyrrolium chloride]
IC50 [1]: > 100 µM | IC50 [2]: > 100 µM | IC50 [3]: > 100 µM | IC50 [4]: > 100 µM

COc1ccc2c(c1)[C@]13CCCC[C@@H]1[C@H](C2)N(C)CC3 [dextromethorphan, reference compound]
pIC50 (mean ± SEM) GluN1-GluN2A [1, 17]: 4.3 ± 0.029 | pIC50 (mean ± SEM) GluN1-GluN2B [2, 17]: 4.8 ± 0.037 | pIC50 (mean ± SEM) GluN1-GluN2C [3, 17]: 5.2 ± 0.057 | pIC50 (mean ± SEM) GluN1-GluN2D [4, 17]: 4.6 ± 0.12
